Test results reported in patent US20060281724A1, “Methods for Treating Shock” (priority 2005, published 2006).

Tests used:
[1] = tested on: rats subjected to 40% loss of total blood volume; experiment: Rat model of volume hemorrhagic trauma (blood loss model); format: in vivo
Experimental: Twenty-four rats were subjected to 40% loss of total blood volume, consisting of catheterization and laparotomy (soft tissue injury) to mimic trauma and hemorrhage. One hour after onset of hemorrhage, the animals were resuscitated with crystalloid fluid and packed red blood cells (PRBCs). Twelve animals received one subcutaneous injection of AET in a methyl cellulose suspension at a concentration of 40 mg/kg body weight in 100 μl/kg body weight, one hour after initiation of hemorrhage, but prior to fluid resuscitation. Twelve animals received subcutaneous methyl cellulose control injection at 100 μl/kg body weight.

[2] = tested on: rats hemorrhaged down to a mean arterial pressure of about 35-40 mmHg; experiment: Rat model of blood pressure hemorrhagic trauma (pressure reduction model); format: in vivo; conditions: two days after induction of hemorrhage; AET 40 mg/kg subcutaneous in methyl cellulose suspension, one hour after initiation of hemorrhage, prior to fluid resuscitation; untreated/control group 75%
Experimental: In a second model of hemorrhagic trauma, 15 rats were hemorrhaged as in Example 1 down to a mean arterial pressure of about 35-40 mmHg and resuscitated one hour from onset of hemorrhage with crystalloid and PRBCs. Seven […] subcutaneous injection of AET in a methyl cellulose suspension at a concentration of 40 mg/kg body weight in 100 μl/kg body weight, one hour after initiation of hemorrhage, but prior to fluid resuscitation. Eight animals received subcutaneous methyl cellulose control injection at 100 μl/kg body weight. Two days after induction of hemorrhage, mortality in the untreated group (n=8) was 75%.

In the case of `C[C@]12CCC(O)CC1=CC(O)[C@@H]1[C@@H]2CC[C@]2(C)C(O)CC[C@@H]12` (stereo partly drawn) [AET, trihydroxy-androst-5ene], the mortality ([1]; three days after hemorrhagic conditions that reduced total blood volume by 40%, FIG. 1) is reported as “zero”, the survival rate ([1]; three days after induction of hemorrhage, AET 40 mg/kg subcutaneous in methyl cellulose suspension, one hour after initiation of hemorrhage, prior to fluid resuscitation, untreated group mortality 25%, P<0.04) is reported as 100% and the mortality rate [2] is reported as 43%.
